Measurements as given in patent US20230277630A1, “METHODS AND COMPOSITIONS FOR TREATING AMYOTROPHIC LATERAL SCLEROSIS” (Amylyx Pharmaceuticals, Inc., priority 2022, published 2023).

Assays:
[1] = Chemical stability in HBSSg_7.4 and HBSS_8.5; format: physicochemical
Experimental: The test article was prepared in DMSO stock (0.5 mM), and aliquots of the DMSO stock were added to each matrix. The nominal concentration of each component was 0.5 μM in each matrix. […] At pre-determined time points, an equal volume of acetonitrile with internal standard was added to each vial, and the mixture was placed at 4° C. until the end of the assay. The peak areas of the test article and IS of each sample were determined by LC-MS/MS, and the ratios of the peak areas (analyte: IS) were calculated.

[2] = CYP reaction phenotyping: CYP control (negative control without CYP enzymes); conditions: CYP Control (without CYP enzymes) 0.1 mg protein/mL, TA 5 μM
Experimental: The reaction was initiated by the addition of NADPH, followed by incubation at 37° C.

P-gp and BCRP = test: in vitro; conditions: human
Experimental: The P-gp and BCRP substrate assessment was conducted in C2BBe1 cell monolayers. […] LY was co-dosed with each dosing solution at a nominal concentration of 200 μM.
The cell culture medium was aspirated, and the cell monolayers were rinsed once with HBSSg_7.4. […] For receiver samples, aliquots (300 μL) were taken at pre-selected time points. […] For donor samples, aliquots (50 μL) were taken at pre-selected time points without replacement.

[3] = Caco-2, pH 7.4, AP-to-BL Papp of TUDCA
[4] = Caco-2, pH 7.4, AP-to-BL Recovery of TUDCA
[5] = Caco-2, pH 7.4, BL-to-AP Papp of TUDCA
[6] = Caco-2, pH 7.4, BL-to-AP Recovery of TUDCA

With `O=C(O)CCCc1ccccc1` [PB, sodium phenylbutyrate] the “Percent of the 0-minute value” ([1]; HBSSg_7.4, Overnight (1020-[…])) was 105%, the “Percent of the 0-minute value” ([1]; HBSSg_7.4, sampling time 0 minutes) was 100% and the “Percent of the 0-minute value” ([1]; HBSSg_7.4, sampling time 120 minutes) was 99.3%. For the same molecule, the “chemical stability in the tested matrices” value ([1]; HBSSg_7.4 and HBSS_8.5, 37° C., 0.5 μM) was “appeared to be stable”, the “Percent of the 0-minute value” ([1]; HBSSg_8.5, Overnight (1020-[…])) was 98.6% and the “Percent of the 0-minute value” ([1]; HBSSg_8.5, sampling time 0 minutes) was 100%. The “Percent of the 0-minute value” ([1]; HBSSg_8.5, sampling time 120 minutes) was 79.4%.
In the case of `C[C@H](CCC(=O)NCCS(=O)(=O)O)[C@H]1CC[C@H]2[C@@H]3[C@@H](O)C[C@@H]4C[C@H](O)CC[C@]4(C)[C@H]3CC[C@]12C` [TUDCA, tauroursodeoxycholic acid], the “% Remaining of TA” value ([2]; 0 min) is reported as 100%, the “% Remaining of TA” value ([2]; 5 min) is reported as 99.4% and the “% Remaining of TA” value ([2]; 10 min) is reported as 97.9%. The “% Remaining of TA” value ([2]; 20 min) was 95.9%, the “% Remaining of TA” value ([2]; 30 min) was 93.7% and the Papp A→B at 1.62 µM (P-gp and BCRP; [3]) was 9.59 ×10⁻⁶ cm/s. It also gave a Papp A→B at 81 µM (P-gp and BCRP; [3]) of 5.84 ×10⁻⁶ cm/s, a Papp A→B at […] (P-gp and BCRP; [3]) of 7.47 ×10⁻⁶ cm/s and a recovery at 1.62 μM (P-gp and BCRP; [4]) of 78.5%. The recovery at 16.2 μM (P-gp and BCRP; [4]) was 71.6%, the recovery at 81 μM (P-gp and BCRP; [4]) was 101% and the Papp B→A at 1.62 µM (P-gp and BCRP; [5]) was 1.75 ×10⁻⁶ cm/s. For the same molecule, the Papp B→A at 16.2 µM (P-gp and BCRP; [5]) was 0.553 ×10⁻⁶ cm/s, the Papp B→A at 81 µM (P-gp and BCRP; [5]) was 2.66 ×10⁻⁶ cm/s and the Papp B→A at […] (P-gp and BCRP; [5]) was 1.94 ×10⁻⁶ cm/s. The recovery at 1.62 μM (P-gp and BCRP; [6]) was 79.5%, the recovery at 16.2 μM (P-gp and BCRP; [6]) was 76.1% and the recovery at 81 μM (P-gp and BCRP; [6]) was 101%.
